According to US8748369B2, “Use of targeted nitroxide agents in bone healing” (University of Pittsburgh-Of the Commonwealth System of …, priority 2009, dated 2014):
Where a SMILES comes first, the peptide text is derived from it. [ ]: non-standard residue; d: D form. The star is where a group is joined. NH(TEMPO-4-yl) = CC1(C)CC(N*)CC(C)(C)N1[O]; Orn = NCCC[C@H](N)C(=O)O; Cbz = O=C(OCc1ccccc1)*; Boc = CC(C)(C)OC(=O)*

Experiments:
Solubility in water = type: physicochemical
Text: All compositions are sterile filtered (e.g.) using a 0.2 micron filter (non sterile). • A. 0.1% DMSO 99.9% and RMPI 1640. Comments: with the low water solubility of JP4-039, DMSO is used in vitro experiments since it is a universal solvent which has been used in radiation biology experiments without any toxic effects. • B. 10% CrEL(Cremophor EL), 10% ethanol and 80% DI water. […] This formula dissolves the JP4-039. • C. Suspension of JP4-039 in F14 emulsion: Comments: F14 is a mixture of sesame oil, egg-phosphatidyl choline, Tween 80, and Span85 at ratios of 1:0.5:0.25:0.25 w/w, respectively. […] Comments: Sesame Seed Oil (100 mg/ml), Soy Phosphatidyl […] (50 mg/ml), JP4-039 (2 mg/ml), and Phosphate Buffered Saline. • Low dose (JP4-039): 5 mg/kg, 0.5 mg/ml. • Medium dose (JP4-039): 10 mg.kg, 1.0 mg/ml. • High dose (JP4-039): 20 mg/kg, 2.0 mg/ml. • Placebo/Vehicle (JP4-039): 0 mg/kg, 0 ing/ml • Exemplary dose (mouse): 200 μl of volume • E. JP4-039 dissolved in a solution of 45% 2-hydroxypropyl-β-cyclodextrin and 55% water. Comments: Cyclodextrins have a hydrophobic interior which compounds such as JP4-039 can complex in a rapid and reversible reaction. P-cyclodextrins have a cavity with an inner diameter of approximately 7.5 Å which is well suited for JP4-039.

[1] = Topical and transdermal absorption through mouse skin (Bronaugh diffusion cell, EPR); type: in vitro ADME; conditions: preliminary experiment
Text: A small piece of skin (2 cm^2) was placed in a Bronaugh style flow-through diffusion cell system (PermeGear, Riegelsville, Pa.) (FIG. 22). It was then sandwiched between two pieces of the inert polymer Kel-F and clamped shut to prevent leakage. The epidermal side faces upward and is exposed to the donor solution (test solution), and the dermal side is in contact with the receptor fluid. The exposed surface area is 0.79 cm^2 (circular chamber with 1 cm diameter). The skin forms a water-tight seal in the flow through chamber so the receiving fluid (PBS+25% ethanol) on the dermal side will contain the XJB-5-125 only if it has penetrated through the skin. The receiver chamber was perfused with this buffer that then passes to a fraction collector via Teflon tubing. The PBS+25% ethanol was used because it is an effective sink for hydrophobic compounds and produces better in vitro/in vivo correlations than other receiver solutions. The skin was maintained at 32° C. by placing the chamber in a metal block heated via a recirculating water bath. […]
EPR spectra were recorded at 334.7 mT, center field; 20 mW, power; 0.079 mT, field modulation; 5 mT, sweep width; 400 and 4000, receiver gain; 0.1 s, time constraint. […]
Further, the total transdermal absorption after 24 hours and the level of XJB-5-125 present in the viable skin can be successfully measured using the techniques described herein. […]

mouse embryonic cells = assay: Gamma irradiation induced apoptosis (cytochrome c release, PS externalization); type: cell-based
Procedure: Externalization of PS was analyzed by flow cytometry using annexin-V kit. Briefly, harvested cells were stained with annexin-V-FITC and PI for 5 min in dark prior to flow cytometry analysis. Ten thousand events were collected on a FACScan flow cytometer (Becton-Dickinson) supplied with CellQuest software.
(A) XJB-5-125 blocks γ-irradiation induced accumulation of cytochrome c in the cytosol of mouse embryonic cells. (B) Densitometry ratio of cytochrome c/actin. Semi-quantitation of the bands was carried out by densitometry using Labworks Image Acquisition and Analysis Software (UVP, Upland, Calif.). The level of cytochrome c release was expressed as the mean densitometry ratio of cytochrome c over actin. (C) Dose (5, 10 and 20 μM) dependent radioprotective effect of XJB-5-125 (pre-treatment) on γ-irradiation (10 Gy) induced phosphatidylserine (PS) externalization. After 48 h post-irradiation incubation, cells were harvested and stained with annexin-V-FITC and propodium iodide (PI) prior to flow cytometry analysis. (D) Time (2, 3, 4, 5, and 6 h) dependent radioprotective effect of XJB-5-125 (20 μM) on γ-irradiation (10 Gy) induced PS externalization (48 h post irradiation) in mouse embryonic cells. […] Externalization of PS was analyzed 72 h post-irradiation exposure. […]

SMILES | solubility in water (Solubility in water) | penetration of intact skin [1] | gamma irradiation induced apoptosis (mouse embryonic cells; 10 Gy) | γ-irradiation induced accumulation of cytochrome c in the cytosol (mouse embryonic cells; mouse embryonic cells)
CC(C)C[C@@H](/C=C/CC(=O)NC1CC(C)(C)N([O])C(C)(C)C1)NC(=O)OC(C)(C)C [JP4-039, (S,E)-5-(tert-Butoxycarbonylamino)-7-methyloct-3-enoic acid-TEMPO] | low solubility in water |  |  | 
CC(C)C[C@H](NC(=O)OC(C)(C)C)C(=O)N[C@H](Cc1ccccc1)C(=O)N1CCC[C@H]1C(=O)N[C@H](C(=O)N[C@@H](CCCNC(=O)OCc1ccccc1)C(=O)NC1CC(C)(C)N([O])C(C)(C)C1)C(C)C [XJB-5-125] (Boc-L[dF]PV[Orn](Cbz)-{NH(TEMPO-4-yl)}) |  | can sufficiently penetrate intact skin | protects | blocks
